Consider 21 compounds from BindingDB's records for PubMed 8510008 (Eli Lilly, 1993).

Molecules are shown by their SMILES.

Experiment [1] concerns the target 5-hydroxytryptamine receptor 2A (Rattus norvegicus, UniProt P14842).
Experiment [2] has as its target T1, 5-hydroxytryptamine receptor 2C (Homo sapiens, UniProt P28335).
T1 sequence (P28335 whole entry): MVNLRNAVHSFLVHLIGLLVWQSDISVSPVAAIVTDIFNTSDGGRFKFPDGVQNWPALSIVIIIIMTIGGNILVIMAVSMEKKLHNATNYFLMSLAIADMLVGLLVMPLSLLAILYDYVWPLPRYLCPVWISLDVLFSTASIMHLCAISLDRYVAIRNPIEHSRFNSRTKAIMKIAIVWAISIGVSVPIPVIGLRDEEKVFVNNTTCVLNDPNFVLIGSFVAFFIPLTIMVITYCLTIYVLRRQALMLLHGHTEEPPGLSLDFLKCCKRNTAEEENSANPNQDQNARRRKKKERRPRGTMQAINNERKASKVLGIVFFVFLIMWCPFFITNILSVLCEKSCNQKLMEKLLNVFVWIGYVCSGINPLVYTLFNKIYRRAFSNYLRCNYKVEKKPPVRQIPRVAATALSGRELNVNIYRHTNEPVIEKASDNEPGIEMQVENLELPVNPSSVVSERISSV

The target in experiment [3] is 5-hydroxytryptamine receptor 2A (Macaca mulatta, UniProt P50128).
Experiment [4] deals with 5-hydroxytryptamine receptor 2A (Sus scrofa, UniProt P50129).
Chain of 5-hydroxytryptamine receptor 2A (Sus scrofa, UniProt P50129) (P50129 whole entry): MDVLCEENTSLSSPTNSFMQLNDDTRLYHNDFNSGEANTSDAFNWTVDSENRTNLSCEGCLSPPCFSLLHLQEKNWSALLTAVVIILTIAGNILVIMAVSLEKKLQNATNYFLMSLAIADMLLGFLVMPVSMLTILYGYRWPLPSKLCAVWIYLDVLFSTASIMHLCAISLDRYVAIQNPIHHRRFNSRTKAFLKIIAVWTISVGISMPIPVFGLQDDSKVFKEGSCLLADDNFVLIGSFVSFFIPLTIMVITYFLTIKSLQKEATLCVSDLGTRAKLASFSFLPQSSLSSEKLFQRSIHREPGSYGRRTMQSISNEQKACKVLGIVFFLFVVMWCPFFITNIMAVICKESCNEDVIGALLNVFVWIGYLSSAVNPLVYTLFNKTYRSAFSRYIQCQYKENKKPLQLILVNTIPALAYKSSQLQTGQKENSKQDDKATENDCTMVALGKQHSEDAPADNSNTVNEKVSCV

Chain of 5-hydroxytryptamine receptor 2A (Macaca mulatta, UniProt P50128) (P50128 whole entry): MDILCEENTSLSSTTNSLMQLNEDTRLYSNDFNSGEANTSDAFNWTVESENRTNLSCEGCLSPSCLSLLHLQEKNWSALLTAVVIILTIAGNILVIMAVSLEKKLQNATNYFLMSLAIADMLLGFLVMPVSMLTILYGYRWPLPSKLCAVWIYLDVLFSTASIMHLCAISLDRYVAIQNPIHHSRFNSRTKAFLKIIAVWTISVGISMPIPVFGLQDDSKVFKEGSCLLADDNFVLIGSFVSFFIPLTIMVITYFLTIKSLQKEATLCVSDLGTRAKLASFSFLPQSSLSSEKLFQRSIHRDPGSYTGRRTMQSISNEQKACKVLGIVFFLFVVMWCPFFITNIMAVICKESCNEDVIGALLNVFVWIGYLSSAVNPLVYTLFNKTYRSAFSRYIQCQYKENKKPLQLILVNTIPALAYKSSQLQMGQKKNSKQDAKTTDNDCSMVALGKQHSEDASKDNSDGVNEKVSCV
Chain of 5-hydroxytryptamine receptor 2A (Rattus norvegicus, UniProt P14842) (P14842 whole entry): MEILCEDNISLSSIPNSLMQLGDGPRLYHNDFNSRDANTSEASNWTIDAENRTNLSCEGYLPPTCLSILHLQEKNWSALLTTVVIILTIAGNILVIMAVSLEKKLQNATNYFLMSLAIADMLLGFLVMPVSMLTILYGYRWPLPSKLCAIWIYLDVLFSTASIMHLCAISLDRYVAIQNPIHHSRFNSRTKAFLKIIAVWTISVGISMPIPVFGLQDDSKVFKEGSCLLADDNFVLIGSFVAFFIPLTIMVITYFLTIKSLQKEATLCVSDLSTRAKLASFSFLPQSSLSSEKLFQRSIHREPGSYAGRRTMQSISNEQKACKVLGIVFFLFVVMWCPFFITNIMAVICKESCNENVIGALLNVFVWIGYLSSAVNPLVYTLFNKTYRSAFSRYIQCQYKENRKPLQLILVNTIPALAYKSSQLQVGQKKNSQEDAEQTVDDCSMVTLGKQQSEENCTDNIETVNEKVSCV

What is called Ki is a measure of affinity in units of concentration, obtained from inhibition or displacement. Low readings indicate tighter binding, high ones weaker binding. `NCCc1c[nH]c2ccc(Br)cc12`: the Ki was found to be 3240 nM in experiment [1] and 1520 nM in experiment [2].

Turning to `CC(O)C(C)OC(=O)[C@@H]1C[C@@H]2c3cccc4c3c(cn4C)C[C@H]2N(C)C1` (stereo partly specified) [1,6-Dimethylergoline-8-carboxylic acid 2-hydroxy-1-methylpropyl ester], the Ki turned out to be 56.8 nM in experiment [3], 57.2 nM in experiment [4] and 9.3 nM in experiment [1].

Turning to `COc1ccc2c(c1)c(CCN)cn2C(C)C` [1-Isopropyl-5-Methoxytryptamine], the inhibitory constant (Ki) stood at 7290 nM in experiment [4] and 3560 nM in experiment [1].

On to `Cc1ccc2c(c1)c(CCN)cn2C(C)C` [1-Isopropyl-5-Methyltryptamine], for which the figures for the Ki in experiment [1] and in experiment [2] were 4680 nM and greater than 10000 nM, respectively.

Turning to `CC(C)n1cc(CCN)c2ccccc21` [1-Isopropyltryptamine], the results for the Ki in experiment [4], in experiment [1] and in experiment [2] were 5720 nM, 3860 nM and 7030 nM, respectively.

In the case of `NCCc1c[nH]c2ccccc12` [1H-indole-3-ethanamine], the Ki in experiment [4] was 3390 nM; in experiment [1] it was greater than 10000 nM; in experiment [2], 3000 nM.

Consider `CC(C)n1cc(CCN)c2cc(Br)ccc21` [5-Br-T, 1-Isopropyl], for which the Ki in experiment [1] turned out to be 3440 nM; in experiment [2], 6240 nM.

As for `Cc1ccc2[nH]cc(CCN)c2c1` [5-Methyl-tryptamine, 10], the Ki in experiment [1] was determined as 6150 nM; in experiment [2], 3220 nM.

As to `CC(CO)NC(=O)C1C=C2c3cccc4[nH]cc(c34)CC2N(C)C1` (stereo unspecified) [CAS_60-79-7], the Ki was found to be 3.4 nM in experiment [3], 3.8 nM in experiment [4], 46.4 nM in experiment [1] and 31.1 nM in experiment [2].

On to `CC(O)C(C)OC(=O)C1CC2c3cccc4c3c(cn4C(C)C)CC2N(C)C1` (stereo unspecified) [CAS_60634-51-7], for which the Ki in experiment [3] worked out at 33.1 nM; in experiment [4] it was 40 nM; in experiment [1], 7.2 nM; in experiment [2] it was 30.6 nM.

`CC(O)C(C)OC(=O)C1CC2c3cccc4[nH]cc(c34)CC2N(C)C1` (stereo unspecified) [LY86057]: the Ki in experiment [3] worked out at 3.2 nM; in experiment [4], 4.6 nM; in experiment [1], 55.9 nM; in experiment [2], 3.3 nM.

With `CN1C[C@H](C(=O)NC2CCCCC2)C[C@@H]2c3cccc4[nH]cc(c34)C[C@H]21` [LY-193525], the results for the Ki in experiment [3], in experiment [4] and in experiment [1] were 2.1 nM, 3.6 nM and 41.6 nM, respectively.

Regarding `CC(C)Cn1cc2c3c(cccc31)[C@H]1C[C@@H](C(=O)OC(C)C(C)O)CN(C)[C@@H]1C2` (stereo partly specified) [LY-197541], the inhibition constant Ki was found to be 153 nM in experiment [3], 148 nM in experiment [4] and 242 nM in experiment [1].

In experiment [1], `COC1CCC(OC(=O)[C@@H]2C[C@@H]3c4cccc5[nH]cc(c45)C[C@H]3N(C)C2)CC1` (stereo partly specified) [LY-254239] came in with a Ki of 42 nM.

Regarding `CN1C[C@@H](NS(=O)(=O)N(C)C)C[C@@H]2c3cccc4c3c(cn4C)C[C@H]21` [MESULERGINE], the Ki in experiment [3] turned out to be 44.9 nM; in experiment [4], 54.2 nM.

As to `CN1C[C@H](CNC(=O)OCc2ccccc2)C[C@@H]2c3cccc4c3c(cn4C)C[C@H]21` [METERGOLINE], the Ki in experiment [3] was 0.82 nM; in experiment [4], 0.37 nM.

In experiment [1], `CN1C[C@H](C(=O)N[C@@H]2CCC[C@@H]2O)C[C@@H]2c3cccc4[nH]cc(c34)C[C@H]21` [N-[(1R,2S)-2-Hydroxycyclopentyl]-6-methylergoline-8-beta-carboxamide] had a Ki of 64.4 nM.

For the compound `COC1CCC(OC(=O)C2CC3c4cccc5c4c(cn5C(C)C)CC3N(C)C2)CC1` (stereo unspecified) [NSC_60262], the Ki in experiment [1] came to 10.9 nM. This Ki lies about 5.9-fold lower than the previous one.

As to `CC(C)n1cc2c3c(cccc31)C1CC(C(=O)NC3CCCCC3)CN(C)C1C2` (stereo unspecified) [NSC_60740], the results for the Ki in experiment [3], in experiment [4] and in experiment [1] were 26.5 nM, 30.7 nM and 6.9 nM, respectively.

Take `CC(C)n1cc2c3c(cccc31)C1CC(C(=O)NC3CCCC3O)CN(C)C1C2` (stereo unspecified) [NSC_132049]: the Ki was 5.8 nM in experiment [1] and 27.7 nM in experiment [2].

In the case of `COc1ccc2[nH]cc(CCN)c2c1` [tryptamine, 5-Methoxy], the inhibition constant (Ki) in experiment [4] came out at 923 nM; in experiment [2], 943 nM.
